Experimental data from ChEMBL document CHEMBL4888484, “Replenishing the malaria drug discovery pipeline: Screening and hit evaluation of the MMV Hit Generation Library 1 (HGL1) against asexual blood stage Plasmodium falciparum ,using a nano luciferase reporter read-out” (2022).

Key:
Plasmodium falciparum [1] = assay: Hit confirmation in dose-response curve in NF54 nanoGlo assay, at 72h; assay type: functional, organism-based, Erythrocyte; parameters: timepoint 72 hour; conditions: Plasmodium falciparum, NF54, Erythrocyte, 72 h
Plasmodium falciparum [2] = assay: Hit confirmation in dose-response curve in NF54 pLDH assay, at 72h; assay type: functional, organism-based; parameters: timepoint 72 hour; conditions: NF54, Erythrocyte
Plasmodium falciparum [3] = assay: Hit confirmation in dose-response curve in Dd2 pLDH assay, at 72h; assay type: functional, organism-based; parameters: timepoint 72 hour; conditions: Dd2, Erythrocyte
Plasmodium falciparum [4] = assay: Hit confirmation in dose-response curve in NF54 nanoGlo assay, at 12h; assay type: functional, organism-based, Erythrocyte; parameters: timepoint 12 hour; conditions: Plasmodium falciparum, NF54, Erythrocyte, 12 h
[5] = Hit confirmation in dose-response curve in HepG2 cytotoxicity assay, at 72h; assay type: toxicity, cell-based; parameters: timepoint 72 hour; conditions: human, HepG2 cells

SMILES	IC50 (Plasmodium falciparum [1]) [µM]	IC50 (Plasmodium falciparum [2]) [µM]	IC50 (Plasmodium falciparum [3]) [µM]	IC50 (Plasmodium falciparum [4]) [µM]	IC50 at 72 h [5] [µM]
Nc1nc(C2CC(N)C2)cc(N2CCC(Oc3ccccc3Cl)CC2)n1 (stereo not given)	1.82	4.07	3.24	3.16	> 10
CC[N+](CC)(CC(=O)OC1CC2CCC1(C)C2(C)C)CC(=O)OC1CC2CCC1(C)C2(C)C (stereo not given)	1.82	2.82	2.19	4.68	> 10
COc1cccc2c(=O)c3c([nH]c12)CCN(CC(=O)NCc1ccccc1Cl)C3	9.77	10	9.12	> 10	> 10
COc1ccc(CNC(=O)c2ccc(N3C(=O)[C@@H]4Cc5c([nH]c6ccccc56)C(c5cccc(OC)c5)N4C3=O)cc2)cc1 (stereo not given in full)	3.16	> 10	8.91	6.92	> 10
O=C(Nc1ccccc1Cl)N1CCC(N2CCc3sccc3C2)CC1	3.72	3.55	4.57	> 10	> 10
Cc1cc(OCCOCCNCCN)cc(C(C)C)c1	4.68	> 10	10.7	> 10	> 10
CCC(=O)N(Cc1ccc(-c2ccc(Cl)cc2)o1)[C@H]1CCS(=O)(=O)C1	1.66	5.13	2.95	3.39	> 10
Cc1n(CC(=O)c2ccccc2)c2ccccc2[n+]1CC(=O)c1ccccc1	1.05	1.55	1.62	> 10	> 10
COc1ccc(CNc2nc(-c3nnc(-c4ccccc4)o3)nc3ccccc23)cc1	3.02	> 10	> 10	0.776	> 10
CC1(C)Cc2nc3ccccc3c(NCc3ccccc3)c2[C@@H](O)C1	2.34	3.98	2.63	4.37	> 10
COc1ccc2c(c1)[n+](CC(=O)c1ccc(-c3ccc(Br)cc3)cc1)c(CO)n2C	1.91	5.62	5.37	> 10	> 10
C[C@@]1(C(=O)NCc2ccccc2)Cn2nc(-c3ccccc3)cc2C(=O)N1c1ccc2c(c1)OCCO2	2.24	9.77	7.41	3.47	> 10
CC[n+]1c(/C=C/N(C)c2ccccc2)oc2ccccc21	0.724	0.741	0.661	> 10	> 10
O=S(=O)(c1ccc(Cl)s1)N1CCC(N2CCc3sccc3C2)CC1	3.47	1.12	5.62	> 10	> 10
COc1ccc(NC(=O)C2(N(Cc3ccccc3)C(=O)Cn3nnc4ccccc43)CCCCC2)cc1	4.47	> 10	> 10	1.7	> 10
COc1ccc(-c2csc(-n3cc(C4=CCN(CCO)CC4)cn3)n2)cc1	5.13	5.5	> 10	> 10	> 10
COC(=O)c1c(NC(C)=O)c2cc(NC3CCOCC3)cnc2n1CCc1ccc(OC)cc1	> 10	> 10	> 10	> 10	> 10
COc1ccccc1CN(C(=O)c1ccc(C)cc1)c1ccc(CC(=O)NCCN2CCCCC2)cc1	3.16	0.513	> 10	> 10	> 10
CCN(CC)CCn1c2ccccc2n2cc(-c3ccc(Br)cc3)nc12	4.47	9.77	6.46	7.08	> 10
O=C(N1CCCN(c2nc3ccccc3nc2-c2ccccc2)CC1)C(Cl)(Cl)Cl	2.88	7.24	5.13	8.91	> 10
Cc1ccc(N(Cc2cccs2)C(=O)c2cccs2)cc1Cl	3.39	9.33	4.68	5.75	> 10
COc1ccc2[nH]c3c(c2c1)CC(C(=O)O)NC3c1ccc(OC)c(CN2CCN(c3ccccc3F)CC2)c1 (stereo not given)	1.55	3.8	2.88	3.98	> 10
CC(C)c1cccc(Nc2nc3ccncc3n(C(C)C)c2=O)c1	1.66	2.82	2.09	3.31	> 10
CC(C)c1cc(=O)[nH]c(-n2nc(C3CC3)cc2NC(=O)COc2ccc3ccccc3c2)n1	1.62	9.33	8.91	> 10	> 10
O=C(c1cc(-c2ccco2)n[nH]1)N1CCC(N2CCC(Oc3ccccc3F)CC2)CC1	2.82	1.82	4.68	> 10	> 10

SMILES	IC50 (Plasmodium falciparum [1]) [µM]	IC50 (Plasmodium falciparum [2]) [µM]	IC50 (Plasmodium falciparum [3]) [µM]	IC50 (Plasmodium falciparum [4]) [µM]	IC50 at 72 h [5] [µM]
CCOc1ccc(Nc2c3ccccc3nc3ccccc23)cc1	1.55	3.47	1.86	5.75	> 10
O=C(c1cccc(C(=O)N2CCN(C(c3ccccc3)c3ccccc3)CC2)c1)N1CCN(C(c2ccccc2)c2ccccc2)CC1	> 10	> 10	> 10	> 10	> 10
Cc1nn(-c2nc3ccccc3[nH]2)c(O)c1CCC(C)C	2.69	8.51	3.72	8.91	> 10
Cc1ccc([C@H](c2c[nH]c3ccccc23)N(C)C(=O)C(C)C)cc1	2.75	> 10	> 10	1.51	> 10
Cc1nn(C(C)(C)C)c2nc(C3CC3)cc(C(=O)N(C)c3ccccc3)c12	1.86	2.34	1.66	> 10	> 10
CC(C)c1nc(C(=O)Nc2[nH]c(=O)ncc2F)cs1	0.00195	0.00214	> 10	0.955	> 10
Oc1nc(N2CCOC3(CCCC3)C2)ncc1F	2.57	4.27	> 10	> 10	> 10
FC(F)(F)C1CN(c2nc(-c3ccccn3)nc3c2CCC3)C1	1.29	2.45	2.29	2.45	> 10
CCOC(=O)c1cn(CC)c2cc(NC3CCCCC3)c(F)cc2c1=O	0.724	2.29	0.891	> 10	> 10
Cc1ccc(C(=O)Nc2cc3c4c(c2)C2CCCC2CN4CC2CCCC32)cc1 (stereo not given)	2.4	3.89	4.17	9.12	> 10
NC(=O)c1ccccc1NC(=O)C1CCN(c2cc(C3CC3)ncn2)CC1	2.04	8.32	6.31	2.4	> 10
S=c1cc(-c2ccccc2)n(Cc2ccco2)c2c1CCCC2	2.57	6.46	6.46	8.13	> 10
Cc1ccccc1C(=O)Cc1ncc[nH]1	2.29	5.75	3.89	4.9	> 10
CCCN1CCC(NCc2ccc(-c3cccc(Cl)c3Cl)o2)CC1	2.63	3.55	2.63	7.08	> 10
O=C(Nc1cccnc1)c1ccc(-c2ccc(Cl)c(Cl)c2)o1	2.24	8.32	7.94	1.66	> 10
COc1ccc(-n2ncc(Oc3cccc(C)c3)c(Nc3cccc(C(=O)NCc4ccc(F)cc4)c3)c2=O)cc1	3.55	> 10	7.59	5.75	> 10
Cc1noc(Cl)c1CC(=O)N1CCCC(C)(C)CC1	2.29	5.62	4.07	7.94	> 10
c1ccc(-c2noc(-c3ccc(NC4CCCCC4)nn3)n2)cc1	3.09	7.94	7.24	> 10	> 10
COc1ccc(CCc2nc(NC(=O)c3nc(C)sc3C)n[nH]2)cc1OC	1.45	> 10	> 10	0.676	> 10
Cc1nc(N2CCC(c3nc(-c4ccccc4)no3)CC2)c2c(C)noc2n1	2.51	> 10	> 10	1.86	> 10
CN(C)CC(O)COc1ccc(S(=O)(=O)c2ccc(OCC(O)CN(C)C)c(Cl)c2)cc1Cl (stereo not given)	1.51	2.45	1.38	3.98	> 10
CCc1ccc(C2=C[C@@H](c3cccc(OC)c3)n3ncc(C(=O)Nc4ccc(C)cc4)c3N2)cc1	2.63	8.71	3.8	3.8	> 10
Cc1[nH]c2ncnc(NC(=O)c3cccc(-n4ccnn4)c3)c2c1C	8.13	> 10	> 10	> 10	> 10
CC1CCN(C[C@H]2CCCCCN2C(=O)NCCc2ccccc2)CC1	3.98	2.45	6.31	> 10	> 10
CC(C)c1ccc(Oc2cnn(-c3cccc(Cl)c3)c(=O)c2Nc2cccc(C(=O)NC3CC3)c2)cc1	3.02	10	6.61	> 10	> 10
